In patent US7008949B2, “Heterocyclic compounds which inhibit leukocyte adhesion mediated by α4 integrins” (Elan Pharmaceuticals, Inc., priority 2003, dated 2006):

Key:
[1] = Cassette dosing and serum analysis for determination of oral bioavailability; format: in vivo, rat; conditions: male SD rats, oral cassette of 6 compounds, total dose 10 mg/kg, plasma at 4, 8, 12 h
Protocol: The oral bioavailability was screened by dosing rats with a cassette, i.e. mixture of 6 compounds per dosing solution. The cassette included 5 test articles and a standard compound, for a total dose of 10 mg/kg. Each compound/test article was converted to the sodium salt with equimolar 1 N NaOH and dissolved in water at 2 mg/mL. The cassette was prepared by mixing equal volumes of each of the six solutions. The cassette dosing solution was mixed well and then the pH was adjusted to 7.5–9. The dosing solution was prepared the day before the study and stirred overnight at room temperature.
Male Sprague Dawley (SD) rats from Charles River Laboratories, 6–8 weeks old were used in this screen. Rats were quarantined for at least one day and had continuous access to food and water. On the night before the administration of the cassette, the rats were fasted for approximately 16 h.
Four SD rats were assigned in each cassette. A single dose of the dosing solution was administered orally to each rat. The dosing volume (5 mL/kg) and time were recorded and rats were fed 2 h after dosing.
Blood samples were collected via cardiac puncture at the following time points: 4 h, 8 h and 12 h. Immediately prior to blood collection, rats were anesthetized with CO2 gas within 10–20 seconds. After the 12-hour samples were collected, the rats were euthanized via CO2 asphyxiation followed by cervical dislocation.
Blood samples were kept in heparinized microtainer tubes under sub-ambient temperature (4° C.) before they were processed. Blood samples were centrifuged (10000 rpm for 5 minutes) and plasma samples were removed and stored in a −20° C. freezer until analyzed for drug levels. Drug levels in the plasma were analyzed using the following protocol for direct plasma precipitation.
The in vivo plasma samples were prepared in a 1.5 mL 96-well plate, by adding, in order, 100 μL of the test plasma, 150 μL of methanol, followed by vortexing for 10–20 seconds. 150 μL of 0.05 ng/μL of an Internal Standard in acetonitrile were added and vortexed for 30 seconds.
The standard curve samples were prepared in a 1.5 mL 96-well plate, by adding, in order, 100 μL of control mouse plasma, followed by 150 μL of methanol and vortexing for 10–20 seconds. 150 μL of 0.05 ng/μL of an Internal Standard in acetonitrile were added and vortexed for 30 seconds. The samples were spiked with 0–200 ng (10 concentrations) of the compound of interest in 50% methanol to obtain a standard curve range of 0.5 ng/mL–2,000 ng/mL. Again, the sample was vortexed for 30 seconds.
The samples were then spun for 20–30 minutes at 3000 rpm in an Eppendorf microfuge before 80–90% of supernatant was transferred into a clean 96-well plate. The organic solvent was then evaporated until the samples were dry (under N2 at 40° C./30–60 min (ZymarkTurbovap)).
The residue was then dissolved in […] mobile phase (50% CH3OH/0.1% TFA). LC/MS/MS was then run using a PE-Sciex API-3000 triple quadurpole mass spectrometer (SN0749707), Perkin-Elmer, Series200auto-sampler, and shimadzu 10A pump. Acquisition was done with PE-Sciex Analyst (v1.1) and data analysis and quantification were accomplished using PE-Sciex Analyst (v1.1). A 5–50 μL sample volume was injected onto a reverse phase ThermoHypersil DASH-18 column (Keystone 2.0×20 mm, 5 μm, PN: 8823025-701) using a mobile phase of 25% CH3OH, 0.1% TFA-100% CH3OH, 0.1% TFA. The run time was about 8 minutes at a flow rate of about 300 μL/minutes.
The Area Under the Curve (AUC) was calculated using the linear trapezoidal rule from t=0 to the last sampling time tx (see Handbook of Basic Pharmacokinetics, Wolfgang A. Ritschel and Gregory L. Kearns, 5th ed, 1999). AUC^0→tx═S((Cn+Cn+1)/2))·(tn+1−tn)[(μg/mL)h]
In the case of the cassette dosing paradigm, samples at 4, 8 and 12 h post extravascular dosing, the AUC was calculated from t=0 to t=12 h.

[2] = target: T1, α4β1 Integrin (Homo sapiens, UniProt P05556+P13612); assay: α4β1 Integrin Adhesion Assay: Jurkat cell adhesion to human plasma fibronectin; format: cell-based; conditions: Jurkat cells
T1 construct: endogenous in cells; host or cells: Jurkat cells
Protocol: 96 well plates (Costar 3590 EIA plates) were coated with human fibronectin (Gibco/BRL, cat #33016-023) at a concentration of 10 μg/mL overnight at 4° C. The plates were then blocked with a solution of bovine serum albumin (BSA; 0.3%) in saline. Jurkat™ cells (maintained in log phase growth) were labeled with Calcein AM according to the manufacturer's instructions, and suspended at a concentration of 2×10^6 cells/mL in Hepes/Saline/BSA. The cells were then exposed to test and control compounds for 30 minutes at room temperature before transfer to individual wells of the fibronectin coated plate. Adhesion was allowed to occur for 35 minutes at 37° C. The wells were then washed by gentle aspiration and pipetting with fresh saline. Fluorescence associated with the remaining adherent cells was quantified using a fluorescence plate reader at EX 485/EM 530.
Cell cultures were prepared by first splitting the stationary phase Jurkat™ cells at 1:10 on day one, and 1:2 on day two to perform assay on day 3. The cells split 1:10 on day one were split 1:4 on day 3 for a day 4 assay.
The assay plates were prepared by first making a working solution of Gibco/BRL Human Fibronectin (cat # 33016-023) in PBS++, at 10 μg/mL.
A Costar 3590 EIA plate was then coated with 50 μL/well for 2 hours at room temperature (thought it can also be left overnight at 4° C.). Finally the plate was asperated and blocked with Hepes/Saline Buffer, 100 μL/well, for 1 hour at RT followed by washing three times with 150 μL of PBS++.
Compound dilutions were accomplished by preparing 1:3 serial dilutions of compounds as follows. For each plate (4 compounds/plate) 600 μL were added to 4 Bio-Rad Titertubes in a Titertube rack. Enough compound was added to each appropriate tube to give a 2× concentration using methods well known in the art. Using Falcon Flexiplates, 100 μL of Hepes/Saline buffer or human serum were added to rows B through G. A multi-channel pipetter set to 180 μL was used to with four tips spaced evenly the pipetter. Each set of four tubes was mixed 5 times and 180 μL of 2× compound was transferred to the first column of each compound dilution in Row B, leaving Row A empty. 180 μL were added to the other wells in Row A. Serial dilutions were performed down the plate by transferring 50 μL to the next dilution and mixing 5 times, changing tips each time after mixing. Dilutions were stopped at Row F. Row G had no compound present.
A 20 μg/mL solution in Hepes/Saline buffer or human serum, of 21/6 antibody was the positive control and was set aside in a reagent trough to add to cell suspension plate.
The cell staining was accomplished by first harvesting the log-phase Jurkat™ cells by centrifugation in 50 mL tubes (1100 rpm for 5 minutes). The cells were resuspended in 50 mL PBS++, spun, and resuspend in 20 mL PBS++. The cells were stained by adding 20 μL of Calcein AM for 30 minutes R.T. The volume was brought to 50 mL with Hepes/Saline buffer and the cells were counted, spun, and resuspend to 2×10^6 cells/mL in Hepes/Saline buffer or human serum.
The compounds were incubated using the following procedure. In a new flexiplate, 65 μL of stained cells were added to Rows B through H. Then 65 μL of 2× compounds were added to the appropriate rows following the plate setup and mixed 3×. 65 μL of 2×-21/6 antibody were added to Row H and mixed 3×. Finally the plate was incubated at room temperature for 30 minutes.
Fibronectin adhesion was measured using a fluorescent plate reader at EX 485/EM 530 after the following work up procedure. After incubation, the cells were mixed 3× and 100 μL were transferred to the Fibronectin coated plates and incubated at 37° C. for about 35 minutes. Each plate was washed, row by row, by gently pipetting 100 μL of R.T. PBS++ down the sides of the wells and turning the plate 90 degrees to aspirate. This procedure was repeated for a total of 3 washes. Each well was filled with 100 μL after washing by pipetting down the side of the well. […]

[3] = IC50, Cell Adhesion to Human Plasma Fibronectin (With Human Serum), with human serum
[4] = IC50, Cell Adhesion to Human Plasma Fibronectin (Without the Human Serum), without human serum

T1 sequence (P13612 34-1032): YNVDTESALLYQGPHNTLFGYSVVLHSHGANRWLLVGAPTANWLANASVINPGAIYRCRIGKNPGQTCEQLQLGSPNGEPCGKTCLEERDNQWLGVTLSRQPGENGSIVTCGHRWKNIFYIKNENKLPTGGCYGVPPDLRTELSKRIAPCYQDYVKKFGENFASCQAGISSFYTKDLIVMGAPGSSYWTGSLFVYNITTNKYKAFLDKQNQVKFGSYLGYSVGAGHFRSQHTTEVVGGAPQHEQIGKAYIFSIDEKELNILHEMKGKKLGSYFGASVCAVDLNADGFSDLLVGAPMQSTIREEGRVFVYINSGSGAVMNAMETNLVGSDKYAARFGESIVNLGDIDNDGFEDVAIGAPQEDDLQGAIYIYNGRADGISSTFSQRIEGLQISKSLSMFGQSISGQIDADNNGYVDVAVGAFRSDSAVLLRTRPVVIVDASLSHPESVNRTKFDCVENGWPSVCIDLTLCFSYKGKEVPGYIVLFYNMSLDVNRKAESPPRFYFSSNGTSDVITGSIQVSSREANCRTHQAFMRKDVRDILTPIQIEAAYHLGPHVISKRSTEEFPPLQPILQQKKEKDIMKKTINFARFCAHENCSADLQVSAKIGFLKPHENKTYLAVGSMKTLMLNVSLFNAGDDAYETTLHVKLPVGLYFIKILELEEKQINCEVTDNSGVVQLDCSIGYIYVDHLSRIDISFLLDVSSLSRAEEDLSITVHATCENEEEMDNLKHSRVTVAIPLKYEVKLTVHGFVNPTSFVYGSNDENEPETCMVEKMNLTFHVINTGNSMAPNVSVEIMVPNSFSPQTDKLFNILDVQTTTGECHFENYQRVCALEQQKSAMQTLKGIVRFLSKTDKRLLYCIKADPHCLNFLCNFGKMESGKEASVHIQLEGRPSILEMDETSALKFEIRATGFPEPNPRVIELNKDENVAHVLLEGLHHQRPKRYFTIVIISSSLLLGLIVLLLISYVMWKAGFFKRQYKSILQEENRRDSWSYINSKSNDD
T1 sequence (P05556 21-798): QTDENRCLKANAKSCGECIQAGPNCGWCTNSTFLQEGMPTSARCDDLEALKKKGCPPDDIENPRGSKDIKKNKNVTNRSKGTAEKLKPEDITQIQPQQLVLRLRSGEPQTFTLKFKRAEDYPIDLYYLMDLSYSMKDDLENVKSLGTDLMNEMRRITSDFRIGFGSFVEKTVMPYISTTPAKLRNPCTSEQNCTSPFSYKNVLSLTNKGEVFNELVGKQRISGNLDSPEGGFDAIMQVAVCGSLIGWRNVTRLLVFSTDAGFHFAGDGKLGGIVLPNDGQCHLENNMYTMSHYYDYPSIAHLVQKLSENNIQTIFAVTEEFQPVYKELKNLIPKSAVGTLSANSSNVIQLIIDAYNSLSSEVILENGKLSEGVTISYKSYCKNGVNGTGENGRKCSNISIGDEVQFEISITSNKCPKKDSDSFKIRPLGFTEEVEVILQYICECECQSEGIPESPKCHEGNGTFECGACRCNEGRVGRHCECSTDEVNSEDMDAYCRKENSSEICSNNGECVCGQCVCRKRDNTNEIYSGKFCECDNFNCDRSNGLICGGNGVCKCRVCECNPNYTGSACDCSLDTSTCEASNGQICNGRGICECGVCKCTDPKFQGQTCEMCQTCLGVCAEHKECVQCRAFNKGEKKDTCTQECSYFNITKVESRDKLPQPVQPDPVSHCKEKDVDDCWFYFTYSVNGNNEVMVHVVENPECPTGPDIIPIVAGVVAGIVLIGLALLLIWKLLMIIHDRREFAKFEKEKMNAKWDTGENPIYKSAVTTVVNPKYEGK

CCN(CC)c1ncc(N(C)S(=O)(=O)c2cc(Cl)cc(Cl)c2)c(N[C@@H](Cc2ccc(OC(=O)N(C)C)cc2)C(=O)O)n1 [Example 19]
AUC (average AUC 0→12 h) [1]: 0.0697 (μg/mL)h | IC50 [2, 3]: 133 nM | IC50 [2, 4]: 5.31 nM

2-{2-diethylamino-5-[(4-fluorobenzenesulfonyl)allylamino]pyrimidin-4-ylamino}-3-(4-dimethylcarbamoyloxyphenyl)propionic acid [Example 22]
AUC (average AUC 0→12 h) [1]: 0.6297 (μg/mL)h | IC50, Cell Adhesion to Human Plasma Fibronectin (With Human Serum) ([2]; with human serum): 0.02529 µg/mL | IC50, Cell Adhesion to Human Plasma Fibronectin (Without the Human Serum) ([2]; without human serum): 0.001506 µg/mL

CCN(CC)c1ncc(N(C)S(=O)(=O)c2ccc(Cl)c(Cl)c2)c(N[C@@H](Cc2ccc(OC(=O)N(C)C)cc2)C(=O)O)n1 [Example 4]
AUC (average AUC 0→12 h) [1]: 0.5965 (μg/mL)h | IC50 [2, 3]: 625 nM | IC50 [2, 4]: 6.25 nM

CCN(CC)c1ncc(N(CC)S(=O)(=O)c2cc(Cl)cc(Cl)c2)c(N[C@@H](Cc2ccc(OC(=O)N(C)C)cc2)C(=O)O)n1 [Example 20]
AUC (average AUC 0→12 h) [1]: 0.0536 (μg/mL)h | IC50 [2, 3]: 119 nM | IC50 [2, 4]: 7.82 nM

2-{2-diethylamino-5-[(4-fluorobenzenesulfonyl)ethylamino]pyrimidin-4-ylamino}-3-(4-dimethylcarbamoyloxyphenyl)propionic acid [Example 9]
AUC (average AUC 0→12 h) [1]: 1.564 (μg/mL)h | IC50, Cell Adhesion to Human Plasma Fibronectin (With Human Serum) ([2]; with human serum): 0.106 µg/mL | IC50, Cell Adhesion to Human Plasma Fibronectin (Without the Human Serum) ([2]; without human serum): 0.001 µg/mL

C#CCN(c1cnc(N(CC)CC)nc1NC(Cc1ccc(OC(=O)N(C)C)cc1)C(=O)O)S(=O)(=O)c1ccc(F)cc1F (stereo not drawn) [Example 28, 2-{2-Diethylamino-5-[(2,4-difluorobenzenesulfonyl)propargylamino]pyrimidin-4-ylamino}-3-(4-dimethylcarbamoyloxyphenyl)propionic acid]
AUC (average AUC 0→12 h) [1]: 0.7968 (μg/mL)h | IC50 [2, 3]: 72.9 nM | IC50 [2, 4]: 6.34 nM

CCN(CC)c1ncc(N(C)S(=O)(=O)c2ccc(F)cc2F)c(N[C@@H](Cc2ccc(OC(=O)N(C)C)cc2)C(=O)O)n1 [Example 17]
AUC (average AUC 0→12 h) [1]: 1.0075 (μg/mL)h | IC50 [2, 3]: 39.6 nM | IC50 [2, 4]: 1.65 nM

2-{2-diethylamino-5-[(3,4-difluorobenzenesulfonyl) ethylamino]pyrimidin-4-ylamino}-3-(4-dimethylcarbamoyloxyphenyl) propionic acid [Example 12]
AUC (average AUC 0→12 h) [1]: 0.8447 (μg/mL)h | IC50, Cell Adhesion to Human Plasma Fibronectin (With Human Serum) ([2]; with human serum): 0.06 µg/mL | IC50, Cell Adhesion to Human Plasma Fibronectin (Without the Human Serum) ([2]; without human serum): 0.003 µg/mL

2-{2-diethylamino-5-[(benzenesulfonyl)methylamino]pyrimidin-4-ylamino}-3-(4-dimethylcarbamoyloxyphenyl)propionic acid [Example 5]
AUC (average AUC 0→12 h) [1]: 0.9577 (μg/mL)h | IC50, Cell Adhesion to Human Plasma Fibronectin (With Human Serum) ([2]; with human serum): 1.851 µg/mL | IC50, Cell Adhesion to Human Plasma Fibronectin (Without the Human Serum) ([2]; without human serum): 0.001414 µg/mL

CCN(CC)c1ncc(N(CC)S(=O)(=O)c2cc(F)cc(F)c2)c(N[C@@H](Cc2ccc(OC(=O)N(C)C)cc2)C(=O)O)n1 [Example 16, 2-{2-diethylamino-5-[(3.5-difluorobenzenesulfonyl)ethylamino]pyrimidin-4-ylamino}-3-(4-dimethylcarbamoyloxyphenyl) propionic acid]
AUC (average AUC 0→12 h) [1]: 0.1721 (μg/mL)h | IC50 [2, 3]: 108 nM | IC50 [2, 4]: 1.67 nM

CCN(CC)c1ncc(N(CC(C)C)S(=O)(=O)c2ccc(F)cc2)c(N[C@@H](Cc2ccc(OC(=O)N(C)C)cc2)C(=O)O)n1 [Example 23, 2-{2-diethylamino-5-[(4-fluorobenzenesulfonyl)isobotylamino]pyrimidin-4-ylamino}-3-(4-dimethylcarbamoyloxyphenyl)propionic acid]
AUC (average AUC 0→12 h) [1]: 0.413 (μg/mL)h | IC50 [2, 3]: 117 nM | IC50 [2, 4]: 6.34 nM

CCN(CC)c1ncc(N(CC(F)(F)F)S(=O)(=O)c2ccc(F)cc2)c(NC(Cc2ccc(OC(=O)N(C)C)cc2)C(=O)O)n1 (stereo not drawn) [Example 29, 2-{2-diethylamino-5-[(4-fluorobenzenesulfonyl)-(2,2,2-trifluoroethyl)amino]pyrimidin-4-ylamino}-3-(4-dimethylcarbamoyloxyphenyl)propionic acid]
AUC (average AUC 0→12 h) [1]: 0.2941 (μg/mL)h | IC50 [2, 3]: 53 nM | IC50 [2, 4]: 3.35 nM

CCN(CC)c1ncc(N(C)S(=O)(=O)c2ccc(F)c(F)c2)c(N[C@@H](Cc2ccc(OC(=O)N(C)C)cc2)C(=O)O)n1 [Example 3]
AUC (average AUC 0→12 h) [1]: 1.5483 (μg/mL)h | IC50 [2, 3]: 251 nM | IC50 [2, 4]: 3.3 nM
